Laboratory results reported in patent US6579881B2 (Eisai Co., Ltd., priority 1997, dated 2003).
pKi: −log10 of the molar value.

Tests used:
serotonin 1A receptor = molecular target: T1, serotonin 1A receptor (Rattus norvegicus, UniProt P19327); experiment: Binding test on [3H] 8-hydroxy-dipropylaminotetralin (serotonin 1A receptor); conditions: [3H] 8-OH-DPAT 0.5 nM, receptor fraction of rat hippocampus; read-out: 5HT1a
T1 construct: To the receptor fraction of the hippocampus were added a test compound and 0.5 nM of [^3H]; 8-hydroxy-dipropylaminotetralin; from tissue; host or cells: SD rat hippocampus, membrane (receptor) fraction
T1 sequence (P19327 1-422): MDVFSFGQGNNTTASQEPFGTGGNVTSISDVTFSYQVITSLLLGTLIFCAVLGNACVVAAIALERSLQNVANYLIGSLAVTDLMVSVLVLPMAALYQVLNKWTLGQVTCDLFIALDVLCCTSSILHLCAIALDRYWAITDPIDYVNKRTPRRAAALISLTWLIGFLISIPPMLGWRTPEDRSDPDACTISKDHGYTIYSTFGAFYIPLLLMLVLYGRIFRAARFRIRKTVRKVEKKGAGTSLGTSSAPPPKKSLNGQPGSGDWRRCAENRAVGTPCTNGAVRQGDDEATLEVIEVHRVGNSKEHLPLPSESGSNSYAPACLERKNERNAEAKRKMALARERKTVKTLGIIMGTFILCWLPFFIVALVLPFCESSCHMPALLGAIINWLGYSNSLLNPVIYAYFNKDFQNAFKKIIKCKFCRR
Procedure: 3) [^3H] 8-Hydroxy-dipropylaminotetralin (8-OH-DPAT).
Use was made of SD rats aged 6 to 8 weeks.
The rats were sacrificed by dcapitation to extirpate the cerebra.
Each mixture was homogenized by using a Teflon glass homogenizer and centrifuged at 1,000×g for 10 min. The supernatant thus obtained was further centrifuged at 20,000×g for 20 min. The obtained precipitate was re-suspended in 50 times (based on the intial wet weight; in the case of the hippocampus) or 10 times (in the case of the cortex) as much a 50 mM Tris hydrochloride (pH 7.4) and incubated at room temperature for 30 min. After centrifuging at 20,000×g for 20 min, the obtained precipitate was further suspended and centrifuged twice each in the same manner. The precipitate thus obtained was suspended in 100 times (based on the initial wet weight; in the case of the hippocampus) or 20 times (in the case of the cortex) as much a 50 mM Tris hydrochloride solution (pH 7.4) to thereby give a receptor fraction. This receptor fraction was stored at −80° C. until using.
(Binding Test on [^3H] 8-hydroxy-dipropylaminotetralin)
To the receptor fraction of the hippocampus were added a test compound and 0.5 nM of [^3H] 8-hydroxy-dipropylaminotetralin and the resultant mixture was incubated at room temperature for 30 min. Next, it was filtered through a glass filter with the use of a cell harvester. After washing the glass filter with 50 mM Tris hydrochloride (pH 7.4), the radioactivity of the receptor was measured with a liquid scintillation counter. The binding detected in the presence of 10 μM of serotonin binoxalate was referred to as the nonspecific binding.
IC50 was calculated by the probit method, while Ki was determined in accordance with the following formula:
wherein c represents the concentration of the radioisotope-labeled compound, and Kd represents the dissociation constant of the radioisotope-labeled compound with respect to the receptor determined by Scatchard's analysis.

serotonin 2 receptor = serotonin 2 receptor (Rattus norvegicus, UniProt P14842); experiment: Binding test on [3H] ketanserin (serotonin 2 receptor); conditions: [3H] ketanserin 0.3 nM, receptor fraction of rat cerebral cortex; read-out: 5HT2
Chain of serotonin 2 receptor (P14842 whole entry): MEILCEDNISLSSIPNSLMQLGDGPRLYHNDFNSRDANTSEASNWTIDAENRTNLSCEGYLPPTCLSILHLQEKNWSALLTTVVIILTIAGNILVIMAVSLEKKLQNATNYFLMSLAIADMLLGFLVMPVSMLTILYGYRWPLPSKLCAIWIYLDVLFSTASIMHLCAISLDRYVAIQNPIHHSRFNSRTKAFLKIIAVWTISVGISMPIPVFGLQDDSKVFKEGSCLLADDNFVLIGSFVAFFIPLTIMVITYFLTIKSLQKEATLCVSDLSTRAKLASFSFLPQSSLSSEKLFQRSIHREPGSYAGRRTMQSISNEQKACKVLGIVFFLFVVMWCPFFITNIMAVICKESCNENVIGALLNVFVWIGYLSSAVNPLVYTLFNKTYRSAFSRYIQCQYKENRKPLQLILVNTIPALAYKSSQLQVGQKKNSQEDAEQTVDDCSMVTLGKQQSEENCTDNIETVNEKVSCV

SMILES | pKi (serotonin 1A receptor) | pKi (serotonin 2 receptor)
CC(=O)N(C)Cc1ccc2c(c1)N(C1CCN(CCc3ccc(F)cc3)CC1)CC2 [Example 163, 1-[1-(4-fluorophenethyl)piperidin-4-yl]-6-N-methylacetamidomethylindoline] | 8.62 | 8.11
CC(=O)NC(C)c1ccc2c(c1)N(C1CCN(CCc3ccc(F)cc3)CC1)CC2 (centres unmarked) [Example 165, 1-[1-(4-fluorophenethyl)piperidin-4-yl]-6-(1-acetamidoethyl)indoline] | 8.26 | 8.91
Fc1ccc(CCN2CCC(N3CCc4ccc(CC5CCNCC5)cc43)CC2)cc1 [Example 167, 1-[1-(4-fluorophenethyl)piperidin-4-yl]-6-[(piperidin-4-yl)methyl]indoline] | 8.19 | 7.73
CCN1CCC(Cc2ccc3c(c2)N(C2CCN(CCc4ccc(F)cc4)CC2)CC3)CC1 [Example 169, 1-[1-(4-fluorophenethyl)piperidin-4-yl]-6-[(1-ethylpiperidin-4-yl)methyl]indoline] | 7.79 | 7.86
CN1CCC(Cc2ccc3c(c2)N(C2CCN(CCc4ccc(F)cc4)CC2)CC3)CC1 [Example 170, 1-[1-(4-fluorophenethyl)piperidin-4-yl]-6-[(1-methylpiperidin-4-yl)methyl]indoline] | 7.32 | 7.79
Fc1ccc(CCN2CCC(N3CCc4ccc(-c5ccccn5)cc43)CC2)cc1 [Example 171, 1-[1-(4-fluorophenethyl)piperidin-4-yl]-6-(2-pyridyl)indoline] | 9.41 | 6.75
Fc1ccc(CCN2CCC(N3CCc4ccc(-c5nccs5)cc43)CC2)cc1 [Example 172, 1-[1-(4-fluorophenethyl)piperidin-4-yl]-6-(2-thiazolyl)indoline] | 9.92 | 7.28
Cn1cccc1-c1ccc2c(c1)N(C1CCN(CCc3ccc(F)cc3)CC1)CC2 [Example 173, 1-[1-(4-fluorophenethyl)piperidin-4-yl]-6-(1-methylpyrrol-2-yl)indoline] | 10.22 | 7.15
OC(c1ccc2c(c1)N(C1CCN(CCc3ccc(F)cc3)CC1)CC2)c1ccccn1 (centres unmarked) [Example 174, 1-[1-(4-fluorophenethyl)piperidin-4-yl]-6-[1-hydroxy-1-(2-pyridyl)methyl]indoline] | 9.62 | 8.73
Fc1ccc(CCN2CCC(N3CCc4ccc(Cc5ccccn5)cc43)CC2)cc1 [Example 175, 1-[1-(4-fluorophenethyl)piperidin-4-yl]-6-[1-(2-pyridyl)methyl]indoline] | 8.83 | 9.46
OC(c1cccnc1)c1ccc2c(c1)N(C1CCN(CCc3ccc(F)cc3)CC1)CC2 (centres unmarked) [Example 176, 1-[1-(4-fluorophenethyl)piperidin-4-yl]-6-[1-hydroxy-1-(3-pyridyl)methyl]indoline] | 8.78 | 10.30
Fc1ccc(CCN2CCC(N3CCc4ccc(Cc5cccnc5)cc43)CC2)cc1 [Example 177, 1-[1-(4-fluorophenethyl)piperidin-4-yl]-6-[1-(3-pyridyl)methyl]indoline] | 9.60 | 9.04
OC(c1ccncc1)c1ccc2c(c1)N(C1CCN(CCc3ccc(F)cc3)CC1)CC2 (centres unmarked) [Example 178] | 7.99 | 8.60
Fc1ccc(CCN2CCC(N3CCc4ccc(Cc5ccncc5)cc43)CC2)cc1 [Example 179, 1-[1-(4-fluorophenethyl)piperidin-4-yl]-6-(4-pyridylmethyl)indoline] | 9.77 | 9.39
CC(O)(c1ccc2c(c1)N(C1CCN(CCc3ccc(F)cc3)CC1)CC2)c1ccccn1 (centres unmarked) [Example 181, 1-[1-(4-fluorophenethyl)piperidin-4-yl]-6-[1-hydroxy-1-(2-pyridyl)ethyl]indoline] | 5.99 | 8.02
O=C(c1cccnc1)c1ccc2c(c1)N(C1CCN(CCc3ccc(F)cc3)CC1)CC2 [Example 183, 1-[1-(4-fluorophenethyl)piperidin-4-yl]-6-(3-pyridylcarbonyl)indoline] | 8.93 | 8.41
